One data set deals with T1, Interstitial collagenase (Homo sapiens, UniProt P03956).
T1 sequence (P03956 whole entry): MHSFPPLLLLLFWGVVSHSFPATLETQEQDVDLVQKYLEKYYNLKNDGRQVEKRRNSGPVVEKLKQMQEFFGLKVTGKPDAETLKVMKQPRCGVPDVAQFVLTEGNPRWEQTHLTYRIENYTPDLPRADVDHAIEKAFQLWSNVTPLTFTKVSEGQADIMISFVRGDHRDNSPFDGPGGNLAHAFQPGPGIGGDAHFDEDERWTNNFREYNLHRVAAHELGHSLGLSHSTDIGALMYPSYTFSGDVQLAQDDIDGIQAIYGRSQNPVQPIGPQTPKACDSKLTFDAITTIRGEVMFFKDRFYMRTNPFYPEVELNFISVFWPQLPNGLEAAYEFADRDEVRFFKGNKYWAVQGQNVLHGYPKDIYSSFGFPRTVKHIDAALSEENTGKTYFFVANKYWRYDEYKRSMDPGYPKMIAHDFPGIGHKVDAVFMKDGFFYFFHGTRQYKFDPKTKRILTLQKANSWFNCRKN
The class given is tissue-based, Rheumatoid synovial fibroblasts.

Data set [1] can be described thus: DRUGMATRIX: Tumor Necrosis Factor (TNF), Non-Selective radioligand binding (ligand: [125I] TNF-alpha). The data set is classed as cell membranes, Membrane. The following applies: u-937; Not Active = under 50% inhibition at 10 µM.
In data set [2] the target is Sodium-dependent noradrenaline transporter (Homo sapiens, UniProt P23975). The experiment in a line: DRUGMATRIX: Norepinephrine Transporter radioligand binding (ligand: [125I] RTI-55). The data set is classed as cell membranes, MDCK, Membrane. The following applies: Not Active = under 50% inhibition at 10 µM; for Ki: read-out: Ki.
In data set [3] the target is T2, Muscarinic acetylcholine receptor M2 (Homo sapiens, UniProt P08172). Also: in other assays of this panel Not Active means under 50% inhibition at 10 µM.
T2 sequence (P08172 whole entry): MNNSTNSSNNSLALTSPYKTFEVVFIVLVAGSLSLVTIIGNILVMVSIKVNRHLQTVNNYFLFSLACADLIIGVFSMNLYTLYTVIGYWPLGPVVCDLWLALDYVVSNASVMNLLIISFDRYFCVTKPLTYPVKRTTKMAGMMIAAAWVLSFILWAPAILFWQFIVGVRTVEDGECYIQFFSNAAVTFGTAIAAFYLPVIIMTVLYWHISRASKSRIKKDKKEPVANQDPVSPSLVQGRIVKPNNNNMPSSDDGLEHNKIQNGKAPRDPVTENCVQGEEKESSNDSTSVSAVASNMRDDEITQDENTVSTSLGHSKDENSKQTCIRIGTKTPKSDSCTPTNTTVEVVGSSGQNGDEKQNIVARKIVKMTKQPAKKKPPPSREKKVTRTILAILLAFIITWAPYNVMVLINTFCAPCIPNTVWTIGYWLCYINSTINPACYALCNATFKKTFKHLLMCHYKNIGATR
The data set is classed as cell membranes, CHO-K1, Membrane. As to conditions: cho-k1.

The target in the next data set is T3, B2 bradykinin receptor (Homo sapiens, UniProt P30411). Also: in other assays of this panel Not Active means under 50% inhibition at 10 µM.
T3 sequence (P30411 whole entry): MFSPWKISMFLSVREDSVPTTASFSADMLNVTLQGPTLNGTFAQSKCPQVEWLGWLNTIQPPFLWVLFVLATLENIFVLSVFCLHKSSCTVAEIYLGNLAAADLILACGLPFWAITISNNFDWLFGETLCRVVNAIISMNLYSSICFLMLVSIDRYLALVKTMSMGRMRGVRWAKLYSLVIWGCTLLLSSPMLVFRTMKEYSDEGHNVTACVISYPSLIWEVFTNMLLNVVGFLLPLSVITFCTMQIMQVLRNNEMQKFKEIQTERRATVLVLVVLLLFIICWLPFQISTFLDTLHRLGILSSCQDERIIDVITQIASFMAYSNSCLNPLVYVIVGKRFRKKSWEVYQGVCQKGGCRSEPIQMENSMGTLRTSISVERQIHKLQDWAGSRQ
The class given is cell membranes, Membrane. The following applies: chem-1.

For a further data set, the target named is Estrogen receptor beta (Homo sapiens, UniProt Q92731). As to conditions: sf9. Also: in other assays of this panel Not Active means under 50% inhibition at 10 µM.
A further data set has as its target Cytochrome P450 2C9 (Homo sapiens, UniProt P11712). As to conditions: bti-tn-5b1-4. Also: in other assays of this panel Not Active means under 50% inhibition at 10 µM.

The IC50 is the point on the concentration scale where inhibition reaches its midpoint. In general, Ki refers to a measure of affinity in units of concentration, obtained from inhibition or displacement.

Cytochrome P450 2C9, sequence (P11712 whole entry): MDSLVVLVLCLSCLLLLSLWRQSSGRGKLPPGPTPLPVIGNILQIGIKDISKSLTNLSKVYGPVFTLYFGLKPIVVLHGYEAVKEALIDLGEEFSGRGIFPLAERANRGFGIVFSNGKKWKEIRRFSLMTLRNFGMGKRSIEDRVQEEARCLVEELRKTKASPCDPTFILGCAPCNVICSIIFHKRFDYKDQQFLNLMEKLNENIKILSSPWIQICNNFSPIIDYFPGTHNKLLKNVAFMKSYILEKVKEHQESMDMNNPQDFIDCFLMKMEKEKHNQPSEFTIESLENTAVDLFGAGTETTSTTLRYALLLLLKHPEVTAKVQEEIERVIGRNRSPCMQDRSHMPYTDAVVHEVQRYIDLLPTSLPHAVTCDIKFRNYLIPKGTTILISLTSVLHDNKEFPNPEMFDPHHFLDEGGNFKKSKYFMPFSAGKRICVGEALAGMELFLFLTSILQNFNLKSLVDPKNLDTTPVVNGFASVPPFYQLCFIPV
Sodium-dependent noradrenaline transporter, sequence (P23975 whole entry): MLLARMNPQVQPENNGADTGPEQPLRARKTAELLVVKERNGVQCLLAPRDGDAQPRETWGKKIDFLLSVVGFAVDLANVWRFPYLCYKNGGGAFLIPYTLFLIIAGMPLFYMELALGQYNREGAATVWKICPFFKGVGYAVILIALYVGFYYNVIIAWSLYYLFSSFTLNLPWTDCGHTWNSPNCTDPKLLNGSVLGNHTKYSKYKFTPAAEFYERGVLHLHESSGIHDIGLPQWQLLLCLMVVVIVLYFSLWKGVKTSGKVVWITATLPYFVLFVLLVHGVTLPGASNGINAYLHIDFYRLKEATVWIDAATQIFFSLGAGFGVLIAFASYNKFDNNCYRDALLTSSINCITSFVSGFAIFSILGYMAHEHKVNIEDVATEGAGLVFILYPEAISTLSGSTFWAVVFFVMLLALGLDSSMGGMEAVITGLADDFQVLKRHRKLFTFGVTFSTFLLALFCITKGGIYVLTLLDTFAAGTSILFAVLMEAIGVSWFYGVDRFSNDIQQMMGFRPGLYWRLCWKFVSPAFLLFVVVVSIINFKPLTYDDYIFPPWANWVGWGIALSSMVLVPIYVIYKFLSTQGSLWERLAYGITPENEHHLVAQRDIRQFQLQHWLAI
Estrogen receptor beta, sequence (Q92731 whole entry): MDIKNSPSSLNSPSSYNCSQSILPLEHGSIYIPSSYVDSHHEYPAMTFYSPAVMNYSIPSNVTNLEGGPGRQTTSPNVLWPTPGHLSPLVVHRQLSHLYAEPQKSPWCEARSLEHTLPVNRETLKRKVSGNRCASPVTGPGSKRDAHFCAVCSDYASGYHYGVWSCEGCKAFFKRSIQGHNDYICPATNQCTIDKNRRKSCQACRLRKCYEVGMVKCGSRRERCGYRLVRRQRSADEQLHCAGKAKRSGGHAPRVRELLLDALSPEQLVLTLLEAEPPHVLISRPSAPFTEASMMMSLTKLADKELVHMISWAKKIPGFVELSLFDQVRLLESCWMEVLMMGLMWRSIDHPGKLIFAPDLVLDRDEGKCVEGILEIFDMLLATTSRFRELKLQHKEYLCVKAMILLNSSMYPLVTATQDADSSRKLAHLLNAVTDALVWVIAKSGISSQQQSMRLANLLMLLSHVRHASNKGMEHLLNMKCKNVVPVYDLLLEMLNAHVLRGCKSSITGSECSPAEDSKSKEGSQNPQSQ

As for `COc1cc(N)nc2[nH]c(-c3ccc(F)cc3)c(-c3ccncc3)c12`, the IC50 entry at Interstitial collagenase is “Not Active”; in data set [1], “Not Active”; in data set [2] (read-out: IC50) it was 1070 nM; in data set [3] it was “Not Active”; at B2 bradykinin receptor, “Not Active”; on Estrogen receptor beta it was “Not Active”. Also, the Ki entry in data set [1] is “Not Active”; in data set [2] it was 1060 nM.
Consider `CCCc1nn(C)c2c(=O)[nH]c(-c3cc(S(=O)(=O)N4CCN(C)CC4)ccc3OCC)nc12`, for which the IC50 entry (at Cytochrome P450 2C9; at Interstitial collagenase; in data set [1]; in data set [2] (mdck); in data set [3]; at B2 bradykinin receptor) was “Not Active” throughout. Moreover, the Ki entry (at Cytochrome P450 2C9; in data set [1]) was “Not Active” each time.
`CCOC(N)=O`: the IC50 entry (against Cytochrome P450 2C9; against Interstitial collagenase; in data set [1]; in data set [2] (mdck); in data set [3]; against B2 bradykinin receptor) was “Not Active” in each case. Besides, the Ki result (on Cytochrome P450 2C9; in data set [1]) was “Not Active” each time.
Turning to `O=c1[nH]c2ccccc2n1CCCN1CCC(n2c(=O)[nH]c3cc(Cl)ccc32)CC1` [DOMPERIDONE], the IC50 entry (on Interstitial collagenase; in data set [3]; against B2 bradykinin receptor; against Estrogen receptor beta) was “Not Active” throughout.
Take `CC(C)OC(=O)C(C)(C)Oc1ccc(C(=O)c2ccc(Cl)cc2)cc1` [FENOFIBRATE]: the IC50 entry (on Cytochrome P450 2C9; at Interstitial collagenase; in data set [3]; against B2 bradykinin receptor; on Estrogen receptor beta) was “Not Active” each time. Further, the Ki entry at Cytochrome P450 2C9 was “Not Active”.
On to `OCCN1CCN(CCCN2c3ccccc3Sc3ccc(C(F)(F)F)cc32)CC1` [FLUPHENAZINE], for which the IC50 entry was “Not Active” on Interstitial collagenase, 1960 nM in data set [2] (read-out: IC50), “Not Active” against B2 bradykinin receptor and “Not Active” on Estrogen receptor beta. For the same molecule, the Ki in data set [2] came out at 1950 nM.
Consider `CCN(CC)CC#CCOC(=O)C(O)(c1ccccc1)C1CCCCC1` (stereo unspecified) [OXYBUTYNIN], for which the IC50 result against Cytochrome P450 2C9, on Interstitial collagenase, at B2 bradykinin receptor and against Estrogen receptor beta was “Not Active” throughout. For the same molecule, at Cytochrome P450 2C9, the Ki result is given as “Not Active”.
As to `O=P(O)(O)C(O)(Cc1cccnc1)P(=O)(O)O` [RISEDRONIC ACID], the IC50 result (at Cytochrome P450 2C9; against Interstitial collagenase; in data set [1]; in data set [2] (mdck); in data set [3]; against B2 bradykinin receptor) was “Not Active” throughout. The Ki entry (on Cytochrome P450 2C9; in data set [1]) was “Not Active” throughout.
Turning to `C=C(C)[C@H]1Cc2c(ccc3c2O[C@@H]2COc4cc(OC)c(OC)cc4[C@@H]2C3=O)O1` [ROTENONE], the IC50 result (against Cytochrome P450 2C9; against Interstitial collagenase; in data set [1]; in data set [2] (mdck); in data set [3]; at B2 bradykinin receptor) was “Not Active” throughout. Besides, the Ki entry (on Cytochrome P450 2C9; in data set [1]) was “Not Active” each time.
For `CO[C@H]1C[C@@H]2CC[C@@H](C)[C@@](O)(O2)C(=O)C(=O)N2CCCC[C@H]2C(=O)O[C@H]([C@H](C)C[C@@H]2CC[C@@H](O)[C@H](OC)C2)CC(=O)[C@H](C)/C=C(\C)[C@@H](O)[C@@H](OC)C(=O)[C@H](C)C[C@H](C)/C=C/C=C/C=C/1C` [SIROLIMUS], the IC50 result (on Interstitial collagenase; in data set [1]; in data set [2] (mdck); in data set [3]; on B2 bradykinin receptor; on Estrogen receptor beta) was “Not Active” throughout. Further, the Ki entry in data set [1] was “Not Active”.
Regarding `CN[C@@H]1[C@H](O)[C@H](NC)[C@H]2O[C@@]3(O)C(=O)C[C@@H](C)O[C@H]3O[C@@H]2[C@H]1O` [SPECTINOMYCIN], the IC50 result (at Cytochrome P450 2C9; against Interstitial collagenase; in data set [1]; in data set [2] (mdck); in data set [3]; against B2 bradykinin receptor) was “Not Active” each time. For the same molecule, the Ki entry (on Cytochrome P450 2C9; in data set [1]) was “Not Active” each time.
Turning to `Nc1ccc(S(=O)(=O)Nc2nccs2)cc1` [SULFATHIAZOLE], the IC50 entry (at Cytochrome P450 2C9; against Interstitial collagenase; in data set [1]; in data set [2] (mdck); in data set [3]; against B2 bradykinin receptor) was “Not Active” each time. The Ki result (at Cytochrome P450 2C9; in data set [1]) was “Not Active” each time.
As to `C[C@]12CC[C@H]3[C@@H](CCC4=CC(=O)CC[C@@]43C)[C@@H]1CC[C@@H]2O` [TESTOSTERONE], the IC50 result (at Interstitial collagenase; in data set [1]; in data set [2] (mdck); in data set [3]; against B2 bradykinin receptor; against Estrogen receptor beta) was “Not Active” in each case. The Ki result in data set [1] is reported as “Not Active”.
As for `CC(C)(C)NC[C@H](O)COc1nsnc1N1CCOCC1` [TIMOLOL], the 50% inhibitory concentration (IC50) entry (at Cytochrome P450 2C9; against Interstitial collagenase; in data set [1]; in data set [2] (mdck); in data set [3]; against B2 bradykinin receptor) was “Not Active” each time. Besides, the Ki result (at Cytochrome P450 2C9; in data set [1]) was “Not Active” each time.
On to `CCS(=O)(=O)CCn1c([N+](=O)[O-])cnc1C` [TINIDAZOLE], for which the IC50 entry (against Interstitial collagenase; in data set [1]; in data set [2] (mdck); in data set [3]; against B2 bradykinin receptor) was “Not Active” each time. In addition, the Ki entry in data set [1] is reported as “Not Active”.
Take `O=c1n(CCCN2CCN(c3cccc(Cl)c3)CC2)nc2ccccn12` [TRAZODONE]: the IC50 result (on Cytochrome P450 2C9; on Interstitial collagenase; in data set [2] (mdck); in data set [3]; against B2 bradykinin receptor) was “Not Active” in each case. Moreover, the Ki entry on Cytochrome P450 2C9 is on record as “Not Active”.
`O=C(O)C(Cl)(Cl)Cl` [TRICHLOROACETIC ACID]: the IC50 entry (against Cytochrome P450 2C9; at Interstitial collagenase; in data set [1]; in data set [2] (mdck); in data set [3]; against B2 bradykinin receptor) was “Not Active” in each case. The Ki entry (at Cytochrome P450 2C9; in data set [1]) was “Not Active” each time.
`COc1ccc(CN2CCNCC2)c(OC)c1OC` [TRIMETAZIDINE]: the IC50 entry (against Interstitial collagenase; in data set [1]; in data set [2] (mdck); in data set [3]; against B2 bradykinin receptor; against Estrogen receptor beta) was “Not Active” in each case. Besides, the Ki result in data set [1] was “Not Active”.
Take `CC(=O)O[C@H]1C[C@@H]2CC[C@@H]3[C@H](CC[C@@]4(C)[C@H]3C[C@H]([N+]3(C)CCCCC3)[C@@H]4OC(C)=O)[C@@]2(C)C[C@@H]1N1CCCCC1.[Br-]` [VECURONIUM BROMIDE]: the IC50 entry (against Cytochrome P450 2C9; against Interstitial collagenase; in data set [1]; in data set [2] (mdck); in data set [3]; on B2 bradykinin receptor) was “Not Active” each time. The Ki entry (on Cytochrome P450 2C9; in data set [1]) was “Not Active” throughout.
As to `Cc1cn([C@H]2C[C@H](N=[N+]=[N-])[C@@H](CO)O2)c(=O)[nH]c1=O` [ZIDOVUDINE], the IC50 result (against Cytochrome P450 2C9; on Interstitial collagenase; in data set [1]; in data set [2] (mdck); in data set [3]; against B2 bradykinin receptor) was “Not Active” in each case. Besides, the Ki entry (at Cytochrome P450 2C9; in data set [1]) was “Not Active” each time.
